Measurements from patent publication US11034725B2, “Compositions and methods for treating cardiovascular disease” (Genentech, Inc., priority 2016, dated 2021).
pIC50: −log10 of the molar value. Read-outs that look alike come from different tables or passages of the source. Bridge positions count the residues as written; N and C are the ends. Square brackets hold non-standard residues; d marks the D form. Peptide text beside a SMILES is read from it. Cit = NC(=O)NCCC[C@H](N)C(=O)O

Columns and labels:
[1] = target: T1, PCSK9Δhelix (Homo sapiens, UniProt Q8NBP7); assay: PCSK9Δhelix/Ab20 TR-FRET binding assay; details: TR-FRET, read-out: PCSK9Δhelix/Ab20 IC50
T1 construct: Human PCSK9 construct M1-Q692 with an engineered TEV site (residue deletion Y166, R167); made in house; host or cells: CHO
T1 sequence (Q8NBP7 with tags, fused parts or gaps limits assumed): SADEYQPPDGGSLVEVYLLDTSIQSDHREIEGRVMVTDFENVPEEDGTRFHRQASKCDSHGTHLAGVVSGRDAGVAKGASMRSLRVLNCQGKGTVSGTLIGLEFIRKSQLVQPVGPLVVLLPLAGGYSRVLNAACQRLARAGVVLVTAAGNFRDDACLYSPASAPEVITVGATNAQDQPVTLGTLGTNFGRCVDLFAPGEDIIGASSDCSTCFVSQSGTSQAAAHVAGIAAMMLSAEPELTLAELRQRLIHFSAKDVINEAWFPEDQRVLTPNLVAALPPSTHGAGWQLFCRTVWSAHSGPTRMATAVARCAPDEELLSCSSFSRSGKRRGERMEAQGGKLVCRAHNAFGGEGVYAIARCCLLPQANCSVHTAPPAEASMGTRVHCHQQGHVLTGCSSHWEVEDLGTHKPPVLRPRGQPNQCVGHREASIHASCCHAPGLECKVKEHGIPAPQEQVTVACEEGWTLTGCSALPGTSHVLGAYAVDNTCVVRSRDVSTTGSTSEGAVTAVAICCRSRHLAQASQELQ
T1 sequence (Q8NBP7 31-152 partner limits assumed): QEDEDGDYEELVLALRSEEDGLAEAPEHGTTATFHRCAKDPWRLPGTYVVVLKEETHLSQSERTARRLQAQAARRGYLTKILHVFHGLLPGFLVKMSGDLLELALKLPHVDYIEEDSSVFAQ

[2] = tested on: His-EGF(A)-Fc; assay: His-EGF(A)-Fc TR-FRET counterscreen; details: TR-FRET counterscreen; Table 8D; * = some inhibition at highest concentrations, not sufficient to fit an IC50
Method: The former was based on a TF-FRET assay to measure the association of the EGF(A) domain of the LDLR to PCSK9 (“PCSK9/EGF(A) binding assay”) whilst the latter was based on a TR-FRET assay to measure binding of Ab20 to PCSK9Δhelix (“PCSK9Δhelix/Ab20 binding assay”).
The ability of compounds to inhibit binding to PCSK9 was evaluated with a panel of time-resolved fluorescence resonance energy transfer (TR-FRET) binding assays. […] The PCSK9Δhelix/Ab20 binding assay evaluated the ability of compounds to compete with Ab20 for binding to the N-terminal groove region in a His-tagged, PCSK9Δhelix construct. […] Signal generation in the PCSK9 binding assays was dependent upon the binding interaction to bring into close proximity the His-tag on the PCSK9 and the Fc-tag on the ligand. Anti-His-APC was bound to the His-tag, and anti-Fc-europium was bound to the Fc-tag. When these two antibodies were in close proximity and were irradiated with light at 340 nm, the europium was excited and emitted energy at 615 nm. This energy was taken up by the APC and was emitted as light at 665 nm. Compounds that competed with the ligand reduced the energy transfer and thus the emission at 665 nm. In the His-EGFA-Fc molecule in the counterscreen, the two tags were always in close proximity, thus any reduction in emission at 665 nm was due to interference with the detection system.
Compounds were solubilized and dilutions were prepared in DMSO. […] The plate was centrifuged to mix the well contents and allowed to incubate for 30 min. […] The TR-FRET signal was read on a ViewLux reader (PerkinElmer) with excitation at 340 nm and emission at 615 and 665 nm with a 50-μs time delay between excitation and measurement of emission. The TR-FRET ratio was calculated as the fluorescence emission at 665 nm divided by the fluorescence emission at 615 nm. The normalized TR-FRET ratios were plotted as a function of the compound concentrations, and the IC50 values were determined using a 4-parameter logistic regression.
In black 1536-well assay plates (MaKO, Aurora® Microplates, Whitefish, Mont.), 40 nL of peptide in DMSO were preincubated with 2 μL His-tagged PCSK9 plus anti-His-allophycocyanin in assay buffer (50 mM Tris-HCl, pH 7.5, 150 mM NaCl, 2 mM CaCl2, 0.01% Tween®-20, 0.1% bovine gamma globulins, and protease inhibitor cocktail) for 30 min. Then 2 μL of Fc-tagged ligand and anti-Fc-europium in assay buffer were added and allowed to incubate for 2 h.

[3] = target: PCSK9 (Homo sapiens, UniProt Q8NBP7); assay: PCSK9/EGF(A) TR-FRET binding assay; details: TR-FRET; Table 8D, disulfide-cyclized extension peptides; read-out: PCSK9/EGF(A) IC50
PCSK9, sequence (Q8NBP7 153-692): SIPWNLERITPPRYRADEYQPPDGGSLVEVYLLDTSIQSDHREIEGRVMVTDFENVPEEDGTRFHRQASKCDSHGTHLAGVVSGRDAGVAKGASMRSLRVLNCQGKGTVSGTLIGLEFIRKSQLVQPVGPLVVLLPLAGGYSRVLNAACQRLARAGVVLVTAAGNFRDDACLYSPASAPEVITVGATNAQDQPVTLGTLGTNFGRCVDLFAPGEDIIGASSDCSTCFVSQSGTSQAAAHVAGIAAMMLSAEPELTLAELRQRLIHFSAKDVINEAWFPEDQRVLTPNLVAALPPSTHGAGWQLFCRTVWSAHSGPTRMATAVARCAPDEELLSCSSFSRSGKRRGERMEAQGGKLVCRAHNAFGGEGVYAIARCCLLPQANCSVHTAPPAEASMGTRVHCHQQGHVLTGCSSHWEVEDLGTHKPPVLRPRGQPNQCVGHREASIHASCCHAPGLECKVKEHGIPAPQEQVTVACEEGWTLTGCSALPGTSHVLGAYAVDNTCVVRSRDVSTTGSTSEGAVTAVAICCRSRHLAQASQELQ
PCSK9, sequence (Q8NBP7 31-152 partner limits assumed): as the sequence (Q8NBP7 31-152 partner limits assumed) above

[4] = Table 8D, disulfide-cyclized extension peptides

Compound	pIC50 [1, 4]	pIC50 [2]	pIC50 [3]	pIC50 ([1]; Example 7)
CC[C@H](C)[C@@H]1NC(=O)[C@H](CCCNC(=N)N)NC(=O)[C@H](CCC(N)=O)NC(=O)[C@H](CC(C)C)NC(=O)[C@H](CC(N)=O)NC(=O)[C@H](Cc2c[nH]c3ccccc23)NC(=O)[C@@H]2CCCN2C(=O)[C@H](CC(C)C)NC(=O)[C@H](CCCNC(=N)N)NC(=O)[C@@H](NC(=O)CNC(=O)[C@H](CO)NC(C)=O)CSSC[C@@H](C(N)=O)NC(=O)[C@@H]2CCCN2C(=O)[C@H](CC(C)C)NC(=O)CNC1=O [Compound 30] (Ac-SGCRLPWNLQRIGLPC-NH2; disulfide 3-16)	6.02	< 4.30	< 4.30	
CC[C@H](C)[C@@H]1NC(=O)[C@H](CCCNC(N)=O)NC(=O)[C@H](CCC(N)=O)NC(=O)[C@H](CC(C)C)NC(=O)[C@H](CC(N)=O)NC(=O)[C@H](Cc2c[nH]c3ccccc23)NC(=O)[C@@H]2CCCN2C(=O)[C@H]([C@@H](C)CC)NC(=O)[C@H](Cc2ccccc2)NC(=O)[C@@H](NC(=O)CNC(=O)[C@H](CO)NC(C)=O)CSSC[C@@H](C(N)=O)NC(=O)[C@@H]2CCCN2C(=O)[C@H](CC(C)C)NC(=O)CNC1=O [Compound 36] (Ac-SGCFIPWNLQ[Cit]IGLPC-NH2; disulfide 3-16)	< 4.30	< 4.30	< 4.30	
CC[C@H](C)[C@@H]1NC(=O)[C@H](CCCNC(=N)N)NC(=O)[C@H](CCCCN)NC(=O)[C@H](CC(C)C)NC(=O)[C@H](CC(N)=O)NC(=O)[C@H](Cc2c[nH]c3ccccc23)NC(=O)[C@@H](NC(C)=O)CSSC[C@@H](C(=O)N[C@@H](Cc2c[nH]c3ccccc23)C(N)=O)NC(=O)CNC(=O)[C@H](CCC(N)=O)NC(=O)[C@H](CO)NC(=O)CNC1=O [Compound 39] (Ac-CWNLKRIGSQGCW-NH2; disulfide 1-12)	4.43	< 4.30	< 4.30	
CC[C@H](C)[C@@H]1NC(=O)[C@H](CCCNC(=N)N)NC(=O)[C@H](CCCCN)NC(=O)[C@H](CC(C)C)NC(=O)[C@H](CC(N)=O)NC(=O)[C@H](Cc2c[nH]c3ccccc23)NC(=O)[C@H](CC(C)C)NC(=O)[C@@H](NC(=O)[C@H](CC(=O)O)NC(C)=O)CSSC[C@@H](C(=O)N[C@@H](CCC(=O)O)C(=O)N[C@@H](Cc2ccc(O)cc2)C(N)=O)NC(=O)[C@H](CCC(N)=O)NC(=O)[C@H](CO)NC(=O)CNC1=O [Compound 64] (Ac-DCLWNLKRIGSQCEY-NH2; disulfide 2-13)	< 4.30	< 4.30	< 4.30	
CC[C@H](C)[C@@H]1NC(=O)[C@H](CCCNC(=N)N)NC(=O)[C@H](CCCCN)NC(=O)[C@H](CC(C)C)NC(=O)[C@H](CC(N)=O)NC(=O)[C@H](Cc2c[nH]c3ccccc23)NC(=O)[C@H](CC(C)C)NC(=O)[C@@H](NC(=O)[C@H](Cc2c[nH]c3ccccc23)NC(C)=O)CSSC[C@@H](C(=O)N[C@@H](CCC(=O)O)C(=O)N[C@@H](Cc2ccc(O)cc2)C(N)=O)NC(=O)[C@H](CCC(N)=O)NC(=O)[C@H](CO)NC(=O)CNC1=O [Compound 65] (Ac-WCLWNLKRIGSQCEY-NH2; disulfide 2-13)	5.15	< 4.30	< 4.30	
CC[C@H](C)[C@@H]1NC(=O)[C@H](CCCNC(=N)N)NC(=O)[C@H](CCCCN)NC(=O)[C@H](CC(C)C)NC(=O)[C@H](CC(N)=O)NC(=O)[C@H](Cc2c[nH]c3ccccc23)NC(=O)[C@@H]2CCCN2C(=O)[C@H](CC(C)C)NC(=O)[C@H](CCCNC(=N)N)NC(=O)[C@@H](NC(C)=O)CSSC[C@@H](C(N)=O)NC(=O)[C@@H]2CCCN2C(=O)[C@H](CC(C)C)NC(=O)CNC1=O [Compound 67] (Ac-CRLPWNLKRIGLPC-NH2; disulfide 1-14)	6.16	< 4.30	< 4.30	6.15
CC[C@H](C)[C@@H]1NC(=O)[C@H](CCCNC(=N)N)NC(=O)[C@H](CCC(N)=O)NC(=O)[C@H](CC(C)C)NC(=O)[C@H](CC(N)=O)NC(=O)[C@H](Cc2c[nH]c3ccccc23)NC(=O)[C@@H]2CCCN2C(=O)[C@H](CC(C)C)NC(=O)[C@H](CCCNC(=N)N)NC(=O)[C@@H](NC(C)=O)CSSC[C@@H](C(N)=O)NC(=O)[C@H](C)NC(=O)[C@H](CC(C)C)NC(=O)CNC1=O [Compound 68] (Ac-CRLPWNLQRIGLAC-NH2; disulfide 1-14)	6.03	< 4.30	< 4.30	
CC[C@H](C)[C@@H]1NC(=O)[C@H](CCCNC(=N)N)NC(=O)[C@H](CCC(N)=O)NC(=O)[C@H](CC(C)C)NC(=O)[C@H](CC(N)=O)NC(=O)[C@H](Cc2c[nH]c3ccccc23)NC(=O)[C@@H]2CCCN2C(=O)[C@H](CC(C)C)NC(=O)[C@H](CCCNC(=N)N)NC(=O)[C@@H](NC(C)=O)CSSC[C@@H](C(N)=O)NC(=O)[C@@H]2CCCN2C(=O)[C@H](C)NC(=O)CNC1=O [Compound 69] (Ac-CRLPWNLQRIGAPC-NH2; disulfide 1-14)	5.18	< 4.30	< 4.30	
CC[C@H](C)[C@@H]1NC(=O)[C@H](CCCNC(=N)N)NC(=O)[C@H](CCC(N)=O)NC(=O)[C@H](CC(C)C)NC(=O)[C@H](CC(N)=O)NC(=O)[C@H](Cc2c[nH]c3ccccc23)NC(=O)[C@@H]2CCCN2C(=O)[C@H](CC(C)C)NC(=O)[C@H](CCCNC(=N)N)NC(=O)[C@@H](NC(C)=O)CSSC[C@@H](C(N)=O)NC(=O)[C@@H]2CCCN2C(=O)[C@H](CC(C)C)NC(=O)[C@H](C)NC1=O [Compound 70] (Ac-CRLPWNLQRIALPC-NH2; disulfide 1-14)	5.14	< 4.30	< 4.30	
CC(=O)N[C@H]1CSSC[C@@H](C(N)=O)NC(=O)[C@@H]2CCCN2C(=O)[C@H](CC(C)C)NC(=O)CNC(=O)[C@H](C)NC(=O)[C@H](CCCNC(=N)N)NC(=O)[C@H](CCC(N)=O)NC(=O)[C@H](CC(C)C)NC(=O)[C@H](CC(N)=O)NC(=O)[C@H](Cc2c[nH]c3ccccc23)NC(=O)[C@@H]2CCCN2C(=O)[C@H](CC(C)C)NC(=O)[C@H](CCCNC(=N)N)NC1=O [Compound 71] (Ac-CRLPWNLQRAGLPC-NH2; disulfide 1-14)	4.31	< 4.30	< 4.30	
CC[C@H](C)[C@@H]1NC(=O)[C@H](C)NC(=O)[C@H](CCC(N)=O)NC(=O)[C@H](CC(C)C)NC(=O)[C@H](CC(N)=O)NC(=O)[C@H](Cc2c[nH]c3ccccc23)NC(=O)[C@@H]2CCCN2C(=O)[C@H](CC(C)C)NC(=O)[C@H](CCCNC(=N)N)NC(=O)[C@@H](NC(C)=O)CSSC[C@@H](C(N)=O)NC(=O)[C@@H]2CCCN2C(=O)[C@H](CC(C)C)NC(=O)CNC1=O [Compound 72] (Ac-CRLPWNLQAIGLPC-NH2; disulfide 1-14)	4.40	< 4.30	< 4.30	
CC[C@H](C)[C@@H]1NC(=O)[C@H](CCCNC(=N)N)NC(=O)[C@H](CCC(N)=O)NC(=O)[C@H](C)NC(=O)[C@H](CC(N)=O)NC(=O)[C@H](Cc2c[nH]c3ccccc23)NC(=O)[C@@H]2CCCN2C(=O)[C@H](CC(C)C)NC(=O)[C@H](CCCNC(=N)N)NC(=O)[C@@H](NC(C)=O)CSSC[C@@H](C(N)=O)NC(=O)[C@@H]2CCCN2C(=O)[C@H](CC(C)C)NC(=O)CNC1=O [Compound 74] (Ac-CRLPWNAQRIGLPC-NH2; disulfide 1-14)	4.31	< 4.30	< 4.30	
CC[C@H](C)[C@@H]1NC(=O)[C@H](CCCNC(=N)N)NC(=O)[C@H](CCC(N)=O)NC(=O)[C@H](CC(C)C)NC(=O)[C@H](C)NC(=O)[C@H](Cc2c[nH]c3ccccc23)NC(=O)[C@@H]2CCCN2C(=O)[C@H](CC(C)C)NC(=O)[C@H](CCCNC(=N)N)NC(=O)[C@@H](NC(C)=O)CSSC[C@@H](C(N)=O)NC(=O)[C@@H]2CCCN2C(=O)[C@H](CC(C)C)NC(=O)CNC1=O [Compound 75] (Ac-CRLPWALQRIGLPC-NH2; disulfide 1-14)	4.31	< 4.30	< 4.30	
CC[C@H](C)[C@@H]1NC(=O)[C@H](CCCNC(=N)N)NC(=O)[C@H](CCC(N)=O)NC(=O)[C@H](CC(C)C)NC(=O)[C@H](CC(N)=O)NC(=O)[C@H](C)NC(=O)[C@@H]2CCCN2C(=O)[C@H](CC(C)C)NC(=O)[C@H](CCCNC(=N)N)NC(=O)[C@@H](NC(C)=O)CSSC[C@@H](C(N)=O)NC(=O)[C@@H]2CCCN2C(=O)[C@H](CC(C)C)NC(=O)CNC1=O [Compound 76] (Ac-CRLPANLQRIGLPC-NH2; disulfide 1-14)	4.31	< 4.30	< 4.30	
CC[C@H](C)[C@@H]1NC(=O)[C@H](CCCNC(=N)N)NC(=O)[C@H](CCC(N)=O)NC(=O)[C@H](CC(C)C)NC(=O)[C@H](CC(N)=O)NC(=O)[C@H](Cc2c[nH]c3ccccc23)NC(=O)[C@H](C)NC(=O)[C@H](CC(C)C)NC(=O)[C@H](CCCNC(=N)N)NC(=O)[C@@H](NC(C)=O)CSSC[C@@H](C(N)=O)NC(=O)[C@@H]2CCCN2C(=O)[C@H](CC(C)C)NC(=O)CNC1=O [Compound 77] (Ac-CRLAWNLQRIGLPC-NH2; disulfide 1-14)	5.22	< 4.30	< 4.30	
CC[C@H](C)[C@@H]1NC(=O)[C@H](CCCNC(=N)N)NC(=O)[C@H](CCC(N)=O)NC(=O)[C@H](CC(C)C)NC(=O)[C@H](CC(N)=O)NC(=O)[C@H](Cc2c[nH]c3ccccc23)NC(=O)[C@@H]2CCCN2C(=O)[C@H](C)NC(=O)[C@H](CCCNC(=N)N)NC(=O)[C@@H](NC(C)=O)CSSC[C@@H](C(N)=O)NC(=O)[C@@H]2CCCN2C(=O)[C@H](CC(C)C)NC(=O)CNC1=O [Compound 78] (Ac-CRAPWNLQRIGLPC-NH2; disulfide 1-14)	5.25	< 4.30	< 4.30	
CC[C@H](C)[C@@H]1NC(=O)[C@H](CCCNC(=N)N)NC(=O)[C@H](CCC(N)=O)NC(=O)[C@H](CC(C)C)NC(=O)[C@H](CC(N)=O)NC(=O)[C@H](Cc2c[nH]c3ccccc23)NC(=O)[C@@H]2CCCN2C(=O)[C@H](CC(C)C)NC(=O)[C@H](C)NC(=O)[C@@H](NC(C)=O)CSSC[C@@H](C(N)=O)NC(=O)[C@@H]2CCCN2C(=O)[C@H](CC(C)C)NC(=O)CNC1=O [Compound 79] (Ac-CALPWNLQRIGLPC-NH2; disulfide 1-14)	5.82	< 4.30	< 4.30	
